We go through 2 compounds from PMC11167047 (Cell Death Discovery, 2024).

Common to all, as to test: kinome screen (33PanQinase)
Holding throughout (format): biochemical

For assay [1], the target named is T1, TLK1 (Homo sapiens, UniProt Q9UKI8).
T1 construct: purchased Reaction Biology Europe GmbH (formerly ProQinase)
T1 sequence (Q9UKI8 1-766): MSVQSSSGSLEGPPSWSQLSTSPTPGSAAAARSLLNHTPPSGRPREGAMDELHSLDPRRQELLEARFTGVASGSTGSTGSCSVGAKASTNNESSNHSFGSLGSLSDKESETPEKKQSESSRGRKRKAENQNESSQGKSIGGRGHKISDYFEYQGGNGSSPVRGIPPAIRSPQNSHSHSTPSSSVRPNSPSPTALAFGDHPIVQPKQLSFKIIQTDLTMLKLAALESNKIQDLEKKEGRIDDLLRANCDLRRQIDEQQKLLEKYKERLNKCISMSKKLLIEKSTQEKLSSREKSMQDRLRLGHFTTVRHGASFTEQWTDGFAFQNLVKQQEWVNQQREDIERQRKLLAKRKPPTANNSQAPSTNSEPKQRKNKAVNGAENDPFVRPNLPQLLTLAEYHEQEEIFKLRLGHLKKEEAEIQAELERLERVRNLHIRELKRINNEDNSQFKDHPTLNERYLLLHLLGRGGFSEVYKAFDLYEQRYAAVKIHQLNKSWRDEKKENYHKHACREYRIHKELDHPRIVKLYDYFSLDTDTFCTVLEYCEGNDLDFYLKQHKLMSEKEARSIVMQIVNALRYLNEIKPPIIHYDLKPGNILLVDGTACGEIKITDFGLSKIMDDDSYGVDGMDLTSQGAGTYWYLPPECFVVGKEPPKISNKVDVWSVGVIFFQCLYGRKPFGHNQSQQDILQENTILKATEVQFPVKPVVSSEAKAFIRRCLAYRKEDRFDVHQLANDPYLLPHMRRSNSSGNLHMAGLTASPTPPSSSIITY
As to the method:
(§1) The Kinome Screening was performed by Reaction Biology Europe GmbH (http://reactionbiology.com; Freiburg i. Br., Germany).

The target in assay [2] is T2, PKN3 (Homo sapiens, UniProt Q6P5Z2).
T2 construct: purchased Reaction Biology Europe GmbH (formerly ProQinase)
How it is done:
as §1

The target in assay [3] is T3, TRKB (Homo sapiens, UniProt Q16620).
T3 construct: purchased Reaction Biology Europe GmbH (formerly ProQinase)
How it is done:
as §1

Assay [4] addresses T4, MEK2 (Homo sapiens, UniProt P36507).
T4 construct: purchased Reaction Biology Europe GmbH (formerly ProQinase)
How it is done:
as §1

The target of assay [5] is T5, MAPKAPK2 (Homo sapiens, UniProt P49137).
T5 construct: purchased Reaction Biology Europe GmbH (formerly ProQinase)
As to the method:
as §1

Assay [6] has as its target T6, MAPKAPK5 (Homo sapiens, UniProt Q8IW41).
T6 construct: purchased Reaction Biology Europe GmbH (formerly ProQinase)
As to the method: as §1

Assay [7] addresses T7, PBK (Homo sapiens, UniProt Q96KB5).
T7 construct: purchased Reaction Biology Europe GmbH (formerly ProQinase)
T7 sequence (Q96KB5 1-322): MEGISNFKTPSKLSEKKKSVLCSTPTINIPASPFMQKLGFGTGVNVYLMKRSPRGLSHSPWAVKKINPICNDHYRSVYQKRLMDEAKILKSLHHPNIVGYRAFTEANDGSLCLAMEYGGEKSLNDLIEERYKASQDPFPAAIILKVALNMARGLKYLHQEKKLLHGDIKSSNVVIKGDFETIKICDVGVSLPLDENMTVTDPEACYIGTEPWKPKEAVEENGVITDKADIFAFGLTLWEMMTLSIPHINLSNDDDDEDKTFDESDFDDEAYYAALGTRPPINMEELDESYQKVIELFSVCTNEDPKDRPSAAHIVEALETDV
As to the method:
as §1

For assay [8], the target named is T8, CK1ε (Homo sapiens, UniProt P49674).
T8 construct: purchased Reaction Biology Europe GmbH (formerly ProQinase)
How it is done:
as §1

Assay [9] concerns the target T9, PKCζ (Homo sapiens, UniProt Q05513).
T9 construct: purchased Reaction Biology Europe GmbH (formerly ProQinase)
T9 sequence (Q05513 1-592): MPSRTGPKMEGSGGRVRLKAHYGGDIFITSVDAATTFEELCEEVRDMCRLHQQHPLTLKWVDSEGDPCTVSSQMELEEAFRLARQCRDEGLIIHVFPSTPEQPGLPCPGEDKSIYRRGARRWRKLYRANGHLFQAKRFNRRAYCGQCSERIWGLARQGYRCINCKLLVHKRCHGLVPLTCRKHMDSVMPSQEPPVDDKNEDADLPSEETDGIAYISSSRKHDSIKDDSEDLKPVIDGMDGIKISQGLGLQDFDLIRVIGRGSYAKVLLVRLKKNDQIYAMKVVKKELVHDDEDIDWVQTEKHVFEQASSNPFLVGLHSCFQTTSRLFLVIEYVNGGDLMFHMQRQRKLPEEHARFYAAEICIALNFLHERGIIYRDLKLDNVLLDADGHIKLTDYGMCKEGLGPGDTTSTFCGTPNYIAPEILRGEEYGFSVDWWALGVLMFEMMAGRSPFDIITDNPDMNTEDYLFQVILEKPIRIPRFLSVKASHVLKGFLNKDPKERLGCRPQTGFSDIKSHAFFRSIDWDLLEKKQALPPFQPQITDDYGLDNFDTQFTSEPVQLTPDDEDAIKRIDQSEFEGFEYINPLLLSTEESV
How it is done:
as §1

Assay [10] addresses T10, p38β (Homo sapiens, UniProt Q15759).
T10 construct: purchased Reaction Biology Europe GmbH (formerly ProQinase)
How it is done: as §1

Assay [11] deals with T11, DYRK2 (Homo sapiens, UniProt Q92630).
T11 construct: purchased Reaction Biology Europe GmbH (formerly ProQinase)
T11 sequence (Q92630 1-601): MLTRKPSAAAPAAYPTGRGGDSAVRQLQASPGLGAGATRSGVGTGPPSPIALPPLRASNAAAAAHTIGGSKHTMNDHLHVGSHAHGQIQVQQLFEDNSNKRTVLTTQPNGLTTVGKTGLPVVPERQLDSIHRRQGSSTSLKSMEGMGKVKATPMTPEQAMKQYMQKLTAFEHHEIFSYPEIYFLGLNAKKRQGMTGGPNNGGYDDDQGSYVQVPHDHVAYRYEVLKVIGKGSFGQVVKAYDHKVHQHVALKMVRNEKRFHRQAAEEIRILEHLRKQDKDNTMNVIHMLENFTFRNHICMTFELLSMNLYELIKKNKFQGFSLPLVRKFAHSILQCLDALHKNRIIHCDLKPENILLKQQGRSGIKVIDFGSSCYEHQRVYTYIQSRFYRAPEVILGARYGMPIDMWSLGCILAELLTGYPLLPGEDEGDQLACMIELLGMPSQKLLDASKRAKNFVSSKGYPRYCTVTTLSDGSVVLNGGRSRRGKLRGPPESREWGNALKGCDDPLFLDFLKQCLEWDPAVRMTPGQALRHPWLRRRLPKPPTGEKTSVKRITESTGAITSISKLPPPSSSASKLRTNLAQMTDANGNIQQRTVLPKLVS
How it is done: as §1

T4 sequence (P36507 whole entry): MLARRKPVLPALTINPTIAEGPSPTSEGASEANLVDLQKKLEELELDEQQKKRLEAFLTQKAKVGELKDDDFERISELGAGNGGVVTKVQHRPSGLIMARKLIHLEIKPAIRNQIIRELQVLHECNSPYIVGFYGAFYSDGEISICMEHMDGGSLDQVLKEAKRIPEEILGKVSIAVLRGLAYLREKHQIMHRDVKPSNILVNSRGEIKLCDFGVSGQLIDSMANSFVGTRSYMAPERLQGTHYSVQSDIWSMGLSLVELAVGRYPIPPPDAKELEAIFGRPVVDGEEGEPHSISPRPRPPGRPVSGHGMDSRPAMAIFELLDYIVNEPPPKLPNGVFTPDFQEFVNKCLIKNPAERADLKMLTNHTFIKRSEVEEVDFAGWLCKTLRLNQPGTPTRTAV
T10 sequence (Q15759 whole entry): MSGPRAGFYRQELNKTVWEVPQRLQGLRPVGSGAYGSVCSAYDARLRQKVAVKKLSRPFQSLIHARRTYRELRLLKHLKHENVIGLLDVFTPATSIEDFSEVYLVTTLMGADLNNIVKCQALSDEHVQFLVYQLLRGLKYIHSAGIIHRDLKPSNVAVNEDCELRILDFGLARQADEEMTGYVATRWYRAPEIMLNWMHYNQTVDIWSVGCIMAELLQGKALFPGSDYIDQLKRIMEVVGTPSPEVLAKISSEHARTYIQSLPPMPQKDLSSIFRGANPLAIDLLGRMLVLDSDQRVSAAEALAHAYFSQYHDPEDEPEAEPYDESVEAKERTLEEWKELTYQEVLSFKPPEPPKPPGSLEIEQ
T2 sequence (Q6P5Z2 whole entry): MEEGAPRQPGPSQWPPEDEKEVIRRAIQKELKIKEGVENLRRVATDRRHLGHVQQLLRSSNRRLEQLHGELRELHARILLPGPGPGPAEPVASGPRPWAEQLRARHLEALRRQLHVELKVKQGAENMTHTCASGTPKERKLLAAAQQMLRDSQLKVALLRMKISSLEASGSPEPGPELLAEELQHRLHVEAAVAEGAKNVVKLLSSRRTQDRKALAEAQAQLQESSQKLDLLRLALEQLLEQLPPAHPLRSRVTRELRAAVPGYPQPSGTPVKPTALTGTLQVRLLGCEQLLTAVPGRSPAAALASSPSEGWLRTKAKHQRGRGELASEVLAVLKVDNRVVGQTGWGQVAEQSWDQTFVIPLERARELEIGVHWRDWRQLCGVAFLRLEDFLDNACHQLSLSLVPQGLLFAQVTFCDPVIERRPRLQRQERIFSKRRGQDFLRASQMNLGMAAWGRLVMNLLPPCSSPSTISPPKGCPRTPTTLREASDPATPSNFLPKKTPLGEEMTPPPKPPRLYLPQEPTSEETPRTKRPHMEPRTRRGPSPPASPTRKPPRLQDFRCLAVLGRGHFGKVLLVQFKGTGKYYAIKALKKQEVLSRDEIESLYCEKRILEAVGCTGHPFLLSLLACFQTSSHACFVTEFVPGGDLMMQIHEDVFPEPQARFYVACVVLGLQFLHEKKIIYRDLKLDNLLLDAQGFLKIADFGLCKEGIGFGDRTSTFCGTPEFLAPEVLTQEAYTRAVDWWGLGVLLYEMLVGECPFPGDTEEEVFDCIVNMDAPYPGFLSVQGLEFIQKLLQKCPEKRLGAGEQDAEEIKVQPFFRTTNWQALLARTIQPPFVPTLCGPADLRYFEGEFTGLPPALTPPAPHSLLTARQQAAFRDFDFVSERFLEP
T3 sequence (Q16620 32-822): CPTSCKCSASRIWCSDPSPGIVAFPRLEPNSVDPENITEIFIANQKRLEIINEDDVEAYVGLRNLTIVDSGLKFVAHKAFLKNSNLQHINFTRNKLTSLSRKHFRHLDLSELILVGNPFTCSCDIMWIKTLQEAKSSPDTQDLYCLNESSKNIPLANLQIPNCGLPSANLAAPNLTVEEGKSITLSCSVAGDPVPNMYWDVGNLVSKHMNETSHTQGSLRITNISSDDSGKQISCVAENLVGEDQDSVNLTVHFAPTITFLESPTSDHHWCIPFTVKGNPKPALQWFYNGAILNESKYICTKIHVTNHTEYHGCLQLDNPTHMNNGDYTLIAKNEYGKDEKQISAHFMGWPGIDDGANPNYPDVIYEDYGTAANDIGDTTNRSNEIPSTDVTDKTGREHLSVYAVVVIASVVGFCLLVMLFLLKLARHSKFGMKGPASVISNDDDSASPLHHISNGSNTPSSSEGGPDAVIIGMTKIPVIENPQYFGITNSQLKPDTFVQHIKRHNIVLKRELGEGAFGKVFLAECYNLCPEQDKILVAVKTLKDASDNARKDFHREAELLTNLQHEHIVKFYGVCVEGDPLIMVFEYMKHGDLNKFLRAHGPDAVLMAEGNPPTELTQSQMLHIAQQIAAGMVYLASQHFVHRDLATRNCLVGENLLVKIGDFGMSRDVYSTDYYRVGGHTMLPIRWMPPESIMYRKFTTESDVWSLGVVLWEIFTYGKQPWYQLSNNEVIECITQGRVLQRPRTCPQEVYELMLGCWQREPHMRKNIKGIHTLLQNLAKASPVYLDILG
T5 sequence (P49137 whole entry): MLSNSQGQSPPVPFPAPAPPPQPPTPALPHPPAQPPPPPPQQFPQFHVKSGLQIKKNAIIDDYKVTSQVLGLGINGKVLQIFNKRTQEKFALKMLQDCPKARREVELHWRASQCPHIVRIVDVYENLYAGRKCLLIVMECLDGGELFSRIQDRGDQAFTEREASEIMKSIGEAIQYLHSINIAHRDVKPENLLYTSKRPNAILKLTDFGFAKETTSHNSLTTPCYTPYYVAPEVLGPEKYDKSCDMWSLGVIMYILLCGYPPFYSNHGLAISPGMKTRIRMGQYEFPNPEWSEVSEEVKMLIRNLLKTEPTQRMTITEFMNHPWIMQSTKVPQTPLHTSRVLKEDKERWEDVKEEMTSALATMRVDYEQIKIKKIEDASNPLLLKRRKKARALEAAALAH
T8 sequence (P49674 whole entry): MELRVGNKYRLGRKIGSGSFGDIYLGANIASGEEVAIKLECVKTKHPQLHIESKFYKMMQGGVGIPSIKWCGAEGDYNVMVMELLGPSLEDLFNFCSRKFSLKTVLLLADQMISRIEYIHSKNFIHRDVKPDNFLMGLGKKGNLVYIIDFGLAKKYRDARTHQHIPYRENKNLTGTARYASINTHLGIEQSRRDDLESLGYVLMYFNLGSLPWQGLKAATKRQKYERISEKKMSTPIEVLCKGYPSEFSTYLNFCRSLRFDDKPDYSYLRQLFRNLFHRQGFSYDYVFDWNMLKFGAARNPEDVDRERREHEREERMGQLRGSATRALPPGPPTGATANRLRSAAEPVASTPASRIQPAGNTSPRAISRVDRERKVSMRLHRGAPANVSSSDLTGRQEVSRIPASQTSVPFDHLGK
T6 sequence (Q8IW41 whole entry): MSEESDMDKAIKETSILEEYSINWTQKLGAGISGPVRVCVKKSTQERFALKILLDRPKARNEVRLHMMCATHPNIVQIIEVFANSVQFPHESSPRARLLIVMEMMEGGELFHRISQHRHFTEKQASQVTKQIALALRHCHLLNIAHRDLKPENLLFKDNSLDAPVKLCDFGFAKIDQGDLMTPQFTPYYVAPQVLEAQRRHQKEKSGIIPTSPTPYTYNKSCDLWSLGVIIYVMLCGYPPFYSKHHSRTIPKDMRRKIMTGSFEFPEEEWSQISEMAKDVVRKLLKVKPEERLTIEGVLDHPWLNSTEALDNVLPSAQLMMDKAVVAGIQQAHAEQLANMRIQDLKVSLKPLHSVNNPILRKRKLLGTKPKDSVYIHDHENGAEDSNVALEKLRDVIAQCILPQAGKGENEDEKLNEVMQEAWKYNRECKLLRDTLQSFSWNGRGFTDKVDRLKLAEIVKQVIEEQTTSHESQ

Turning to `COc1ccnc2[nH]cc(-c3cc(N)nc(N)c3)c12` [meriolin 16], the residual kinase activity in assay [1] (0.03 µM) is 98 % of control; in [1] (0.3 µM) it was 89 % of control; in assay [2] (0.03 µM), 83 % of control; in assay [2] (0.3 µM), 74 % of control; in assay [3] (0.03 µM), 68 % of control; in assay [3] (0.3 µM), 29 % of control. Also, the residual kinase activity in assay [4] (0.03 µM) is recorded as 66 % of control; in assay [4] (0.3 µM), 48 % of control; in assay [5] (0.3 µM) it was 95 % of control; in [6] (0.3 µM), 85 % of control; in assay [7] (0.03 µM) it was 95 % of control; in assay [7] (0.3 µM), 90 % of control. The residual kinase activity is given as 112 % of control in [8] (0.03 µM); 41 % of control in [8] (0.3 µM); 97 % of control in [9] (0.03 µM); 78 % of control in assay [9] (0.3 µM); 79 % of control in assay [10] (0.03 µM); 88 % of control in [10] (0.3 µM). Moreover, the residual kinase activity in assay [11] (0.03 µM) is recorded as 6 % of control; in assay [11] (0.3 µM), 1 % of control.
As to `c1ccc(CNc2cc(-c3c[nH]c4ncccc34)ccn2)cc1` [meriolin 36], the residual kinase activity in assay [1] (0.3 µM) is on record as 119 % of control; in assay [1] (3 µM), 106 % of control; in assay [2] (0.3 µM) it was 27 % of control; in [2] (3 µM), 3 % of control; in assay [3] (0.3 µM) it was 10 % of control; in assay [3] (3 µM) it was 2 % of control. Moreover, the residual kinase activity is listed as 13 % of control in [4] (0.3 µM); 3 % of control in [4] (3 µM); 130 % of control in [5] (0.3 µM); 87 % of control in [5] (3 µM); 69 % of control in assay [6] (3 µM); 69 % of control in [7] (0.3 µM). The residual kinase activity is 80 % of control in [7] (3 µM); 86 % of control in assay [8] (0.3 µM); 23 % of control in assay [8] (3 µM); 85 % of control in [9] (0.3 µM); 29 % of control in [9] (3 µM); 77 % of control in [10] (0.3 µM). Also, the residual kinase activity in assay [10] (3 µM) is 84 % of control; in assay [11] (0.3 µM), 31 % of control; in [11] (3 µM), 4 % of control.
